# Data published in patent US9370555B2, “Surfactant protein D for the treatment of disorders associated with lung injury” (priority 1998, dated 2016).
# Entries after “also recorded” stand apart in the source; their conditions may differ.
# B1: purified mouse SP-D: Surfactant protein D purified from BAL fluid of GMCSF and SP-A double null mutant mice on maltosyl-agarose (protein, UniProt P50404 20-374, looked up)
# Pulmonary …: AEMKSLSQRSVPNTCTLVMCSPTENGLPGRDGRDGREGPRGEKGDPGLPGPMGLSGLQGPTGPVGPKGENGSAGEPGPKGERGLSGPPGLPGIPGPAGKEGPSGKQGNIGPQGKPGPKGEAGPKGEVGAPGMQGSTGAKGSTGPKGERGAPGVQGAPGNAGAAGPAGPAGPQGAPGSRGPPGLKGDRGVPGDRGIKGESGLPDSAALRQQMEALKGKLQRLEVAFSHYQKAALFPDGRSVGDKIFRTADSEKPFEDAQEMCKQAGGQLASPRSATENAAIQQLITAHNKAAFLSMTDVGTEGKFTYPTGEPLVYSNWAPGEPNNNGGAENCVEIFTNGQWNDKACGEQRLVICEF
# B2: recombinant SP-D: Recombinant human SP-D dodecamers secreted by CHO-K1 cells transfected with full-length human cDNA (protein)
# chain: B1 Pulmonary …
# Legend:
# MMP-2 and 9 = experiment: Gelatin zymography of conditioned media from alveolar macrophages of SP-D(−/−) mice; assay type: cell-based, mouse; conditions: for gelatinolytic activity of MMP-2 and 9 in conditioned media: AMs from SP-D(−/−) mice, 20 mM NAC, 200 μM PDTC, 1 μM DPI, 1 mM apocynin, 10 μM SN-50, 24 h
# Description: Isolation of alveolar macrophages (AMs) from bronchoalveolar lavage (BAL) was performed by instilling ten, 1 ml aliquots of phosphate-buffered saline (PBS). BAL fluid from several animals was pooled to provide sufficient numbers of macrophages for each analysis. The lavage was centrifuged at 1200 rpm at 7 min and pelleted cells were resuspended in serum-free RPMI medium containing 1% of Nutriodoma (Boehringer Mannheim, Indianapolis, Ind.), and counted with a hemocytometer. More than 90% of BAL cells were AM in both WT and SP-D (−/−) mice. For some experiments, alveolar macrophages (AMs) were isolated by differential attachment to tissue culture flasks at 37° C. Non-adherent cells were then removed, and fresh, serum-free medium was added. The adherent AMs were maintained in a humidified atmosphere containing 5% CO2 and 95% air until the end of the experiments. To determine whether increased oxidant production mediated the expression of MMPs by AMs from SP-D (−/−) mice, the cells were treated with N-acetylcysteine (NAC) and pyrrolidine dithiocarbamate (PDTC), both antioxidant reagents as follows: AMs from SP-D (−/−) mice were pooled and placed in culture at a concentration of 5×10^5 cells per well in serum-free RPMI medium. The AMs were treated with 20 mM N-acetylcysteine (NAC), 200 μM pyrolidine dithiocarbamate (PDTC), 1 μM diphenylene iodonium chloride (DPI) (Sigma, St. Louis, Mo.), or 1 mM apocynin (Aldrich, Milwaukee, Wis.). Cells were also incubated with a 10 μM SN-50 (Calbiochem, LaJolla, Calif.), an inhibitor of NF-κB nuclear import. After 6 h incubation, supernatants were removed and the cells were washed and incubated with fresh media including the reagents for 24 h. […] RAW 264.7 murine macrophage cell line was obtained from the American Type Culture Collection (Rockville, Md.) and maintained in DMEM containing 10% FBS, 10 mM HEPES, 50 U/ml penicillin and 50 μg/mL streptomycin. 2×10^5 cells in 24-well plates were incubated with or without 10 μM menadione (Sigma, St. Louis, Mo.) for 24 hours. Gelatinolytic activity in the culture media of untreated and treated cells was analyzed by SDS-PAGE zymography (FIGS. 29A-29D). Gelatin Zymography was performed as follows: MMP activities were measured in macrophage-conditioned media. Proteinases in the conditioned media were concentrated by incubation with gelatin-agarose beads (Amersham Pharmacia, Arlington Heights, Ill.) for 2 h at 4° C. The beads were pelleted and washed, and proteinases eluted by incubation in sample buffer for 45 min at 37° C. The samples then were electrophoresed into 10% Zymogram gelatin gels (NOVEX, San Diego, Calif.). […] Gels were stained with 0.5% (wt/vol) Coomassie blue in 50% methanol and 10% acetic acid for 30 min, then destained. MMPs were detected as clear bands against a blue background.
# MMP-2 and 9 mRNA = experiment: RT-PCR of MMP-2 and 9 mRNA in cultured AMs from SP-D(−/−) mice; assay type: cell-based, mouse; conditions: 1 mM apocynin
# NF-κB = experiment: EMSA of nuclear extracts from AMs of SP-D(−/−) mice, NF-κB oligonucleotide; assay type: cell-based, mouse; conditions: AMs isolated from SP-D(−/−) mice
# Description: (§1) To assess whether apocyanin affected binding of nuclear extracts, the following protocol was used: Nuclear extracts were obtained using a modified method previously described (Sever Chroneos, et al. Am. J. Physiol. 277:L79). Lavaged cells were lysed with Buffer A (10 mM Hepes, 10 mM KCl, 0.1 mM EDTA, 1.5 mM MgCl2, 0.2% Nonidet P-40 (NP-40), 1 mM DTT, 0.5 mM PMSF), followed by vortexing to shear the cytoplasmic membranes. Nuclei were pelleted by centrifugation at 3000 rpm for 3 min at 4° C. in a microcentrifuge. Nuclear proteins were extracted with high-salt buffer C (20 mM Hepes, 25% glycerol, 1.5 mM MgCl2, 0.1 mM EDTA, 1.5 mM MgCl2, 420 mM NaCl, 1 mM DTT, 0.5 mM PMSF) and stored at −80° C. Total nuclear protein concentrations were determined by bicinchoninic acid (BCA) method.
# AP-1 = experiment: EMSA of nuclear extracts from AMs of SP-D(−/−) mice, AP-1 oligonucleotide; assay type: cell-based, mouse; conditions: AMs isolated from SP-D(−/−) mice
# Description: as §1
# [1] = system: RAW 264.7 murine macrophage cell line; experiment: MMP-9 production by RAW 264.7 macrophages (zymography); assay type: cell-based, mouse; conditions: 10 μM, 24 hours
# Description: RAW 264.7 murine macrophage cell line was obtained from the American Type Culture Collection (Rockville, Md.) and maintained in DMEM containing 10% FBS, 10 mM HEPES, 50 U/ml penicillin and 50 μg/mL streptomycin. 2×10^5 cells in 24-well plates were incubated with or without 10 μM menadione (Sigma, St. Louis, Mo.) for 24 hours. To assess whether ROS directly stimulated MMP production, RAW 264.7 macrophages were incubated with 10 μM of menadione, a ROS generator, for 24 hours.
# SP-D(−/−) mice = experiment: Treatment of SP-D(−/−) mice with purified mouse SP-D: saturated PC pools; assay type: in vivo; conditions: 2.9 μg intratracheally at 24 hour intervals, 3 to 7 doses
# [2] = system: influenza A virus A/Phillipines/82 (H3N2) (Phil/82); assay type: in vivo; conditions: SP-D −/− mice
molecule,measurement,setting,value
"c1ccc2c(c1)[I+]c1ccccc1-2 [DPI, diphenylene iodonium chloride]",gelatinolytic activity of MMP-2 and 9 in conditioned media,MMP-2 and 9,markedly suppressed MMP enzymatic activity; also recorded: markedly decreased MMP activity
"CC(=O)N[C@@H](CS)C(=O)O [NAC, N-acetylcysteine]",gelatinolytic activity of MMP-2 and 9 in conditioned media,MMP-2 and 9,reduced gelatinolytic activity; also recorded: inhibited gelatinolytic activities of MMP-2 and 9
"S=C(S)N1CCCC1 [PDTC, pyrrolidine dithiocarbamate]",gelatinolytic activity of MMP-2 and 9 in conditioned media,MMP-2 and 9,reduced gelatinolytic activity; also recorded: inhibited gelatinolytic activities of MMP-2 and 9
COc1cc(C(C)=O)ccc1O [apocynin],MMP-2 and 9 mRNA,MMP-2 and 9 mRNA,reduced MMP-2 and 9 mRNA
same,binding of nuclear extracts to NF-κB oligonucleotide (EMSA),NF-κB,reduced DNA binding activity of NF-κB
same,binding of nuclear extracts to NF-κB oligonucleotide (EMSA),NF-κB; listed as Apocynin,reduced binding of nuclear extracts
same,gelatinolytic activity of MMP-2 and 9 in conditioned media,MMP-2 and 9,markedly suppressed MMP enzymatic activity; also recorded: markedly decreased MMP activity
same,DNA binding activity to an AP-1 oligonucleotide (EMSA),AP-1,decreased DNA binding activity
CC1=CC(=O)c2ccccc2C1=O [menadione],MMP-9 production,[1],increased
B1,MMP production by AMs,MMP-2 and 9; mouse SP-D 5 μg/ml in vitro,did not reduce MMP production
same,Saturated PC levels in alveolar lavage and total lung lavage (lipid accumulation),SP-D(−/−) mice,partial correction of lipid accumulation; also recorded: decreased both alveolar and saturated PC pools
B2,IAV (Phil/82) titer in lung,"[2]; 5 μg intratracheal co-administration, 3 days after infection, untreated 1.6×10^5±4.0×10^4, mean±SEM",7.5×10^4±1.4×10^4 ff/gram lung
same,clearance of IAV from the lung,[2]; co-administration of recombinant SP-D,normalized viral clearance; also recorded: enhanced clearance
